Experimental data published in patent US8211662B2, “Nitroreductase enzymatic substrates” (Biomerieux, priority 2007, dated 2012).

Experiments:
[1] = test system: Morganella morganii 462403 (wild); test: Nitroreductase detection on Columbia agar, colonies read under UV; type: cell-based; parameters: key to Intensity of fluorescence, Morganella morganii 462403 / F: fluorescence (intensity), Morganella morganii 462403 (wild) / Intensity of the fluorescence, Morganella morganii 462403 (wild): − = no fluorescence detected; +/− = weak fluorescence; + = medium fluorescence; ++ = strong fluorescence; settings: Table 3; 100 mg/l in Columbia agar, 24 h 37° C., UV 360-365 nm
Method: (§1) A mass of 40 mg of each substrate was dissolved in 4 ml of dimethylformamide (DMF). This solution was entirely taken up in 400 ml of Columbia agar autoclaved beforehand and kept molten at 50° C. The final concentration for each substrate was 100 mg/l.
(§2) Each of the media was distributed into Petri dishes 90 mm in diameter, in a proportion of 20 ml per dish.
(§3) 18 microorganism strains derived from collections and belonging to various species of bacteria and of yeasts were inoculated onto these media by semi-quantitative isolation of 10 μl of a suspension at 0.5 McFarland diluted to 1/20. The media were incubated for 24 hours at 37° C., then the colonies formed were examined visually under UV illumination at 360-365 nm.

MRSA NCTC 11939 = test: as above; type: cell-based, Staphylococcus aureus; parameters: key: − = no fluorescence detected; +/− = weak fluorescence; + = medium fluorescence; ++ = strong fluorescence; settings: Table 3; 100 mg/l in Columbia agar, 24 h 37° C., UV 360-365 nm
Method: as §1, §2, §3

[2] = test system: Candida glabrata NCPF 3943; test: as above; type: cell-based; parameters: key to Intensity of fluorescence, Candida glabrata NCPF3943 / F: fluorescence (intensity), Candida glabrata NCPF 3943 / Intensity of the fluorescence, Candida glabrata NCPF 3943: − = no fluorescence detected; +/− = weak fluorescence; + = medium fluorescence; ++ = strong fluorescence; settings: 100 mg/l in Columbia agar, 24 h 37° C.; for F: fluorescence (intensity), Candida glabrata NCPF 3943: Table 3, UV 360-365 nm
Method: as §1, §2, §3

[3] = test system: Enterobacter cloacae NCTC 11936; test: as above; type: cell-based; parameters: key: − = no fluorescence detected; +/− = weak fluorescence; + = medium fluorescence; ++ = strong fluorescence; settings: Table 3; 100 mg/l in Columbia agar, 24 h 37° C., UV 360-365 nm
Method: as §1, §2, §3

[4] = test system: Staphylococcus aureus NCTC 6571; test: as above; type: cell-based; parameters: key: − = no fluorescence detected; +/− = weak fluorescence; + = medium fluorescence; ++ = strong fluorescence; settings: Table 3; 100 mg/l in Columbia agar, 24 h 37° C., UV 360-365 nm
Method: as §1, §2, §3

[5] = test system: Candida albicans ATCC 90028; test: as above; type: cell-based; parameters: key: − = no fluorescence detected; +/− = weak fluorescence; + = medium fluorescence; ++ = strong fluorescence; settings: Table 3; 100 mg/l in Columbia agar, 24 h 37° C., UV 360-365 nm
Method: as §1, §2, §3

[6] = test system: Yersinia enterocolitica NCTC 11176; test: as above; type: cell-based; parameters: key: − = no fluorescence detected; +/− = weak fluorescence; + = medium fluorescence; ++ = strong fluorescence; settings: Table 3; 100 mg/l in Columbia agar, 24 h 37° C., UV 360-365 nm
Method: as §1, §2, §3

[7] = test system: Burkholderia cepacia 1222; test: as above; type: cell-based; parameters: key: − = no fluorescence detected; +/− = weak fluorescence; + = medium fluorescence; ++ = strong fluorescence; settings: Table 3; 100 mg/l in Columbia agar, 24 h 37° C., UV 360-365 nm
Method: as §1, §2, §3

[8] = test system: Escherichia coli NCTC 10418; test: as above; type: cell-based; parameters: key: − = no fluorescence detected; +/− = weak fluorescence; + = medium fluorescence; ++ = strong fluorescence; settings: Table 3; 100 mg/l in Columbia agar, 24 h 37° C., UV 360-365 nm
Method: as §1, §2, §3

[9] = test system: Staphylococcus epidermidis NCTC 11047; test: as above; type: cell-based; parameters: key: − = no fluorescence detected; +/− = weak fluorescence; + = medium fluorescence; ++ = strong fluorescence; settings: Table 3; 100 mg/l in Columbia agar, 24 h 37° C., UV 360-365 nm
Method: as §1, §2, §3

[10] = test system: Providencia rettgeri NCTC 7475; test: as above; type: cell-based; parameters: key: − = no fluorescence detected; +/− = weak fluorescence; + = medium fluorescence; ++ = strong fluorescence; settings: Table 3; 100 mg/l in Columbia agar, 24 h 37° C., UV 360-365 nm
Method: as §1, §2, §3

[11] = test system: Serratia marcescens NCTC 10211; test: as above; type: cell-based; parameters: key: − = no fluorescence detected; +/− = weak fluorescence; + = medium fluorescence; ++ = strong fluorescence; settings: Table 3; 100 mg/l in Columbia agar, 24 h 37° C., UV 360-365 nm
Method: as §1, §2, §3

[12] = test system: Citrobacter freundii 46262 (wild); test: as above; type: cell-based; parameters: key: − = no fluorescence detected; +/− = weak fluorescence; + = medium fluorescence; ++ = strong fluorescence; settings: Table 3; 100 mg/l in Columbia agar, 24 h 37° C., UV 360-365 nm
Method: as §1, §2, §3

[13] = test system: Enterococcus faecalis NCTC 775; test: as above; type: cell-based; parameters: key: − = no fluorescence detected; +/− = weak fluorescence; + = medium fluorescence; ++ = strong fluorescence; settings: Table 3; 100 mg/l in Columbia agar, 24 h 37° C., UV 360-365 nm
Method: as §1, §2, §3

[14] = test system: Enterococcus faecium NCTC 7171; test: as above; type: cell-based; parameters: key: − = no fluorescence detected; +/− = weak fluorescence; + = medium fluorescence; ++ = strong fluorescence; settings: Table 3; 100 mg/l in Columbia agar, 24 h 37° C., UV 360-365 nm
Method: as §1, §2, §3

[15] = test system: Bacillus subtilis NCTC 9372; test: as above; type: cell-based; parameters: key: − = no fluorescence detected; +/− = weak fluorescence; + = medium fluorescence; ++ = strong fluorescence; settings: Table 3; 100 mg/l in Columbia agar, 24 h 37° C., UV 360-365 nm
Method: as §1, §2, §3

[16] = test system: Listeria monocytogenes NCTC 11994; test: as above; type: cell-based; parameters: key: − = no fluorescence detected; +/− = weak fluorescence; + = medium fluorescence; ++ = strong fluorescence; settings: Table 3; 100 mg/l in Columbia agar, 24 h 37° C., UV 360-365 nm
Method: as §1, §2, §3

[17] = test system: Streptococcus pyogenes NCTC 8306; test: as above; type: cell-based; parameters: key: − = no fluorescence detected; +/− = weak fluorescence; + = medium fluorescence; ++ = strong fluorescence; settings: Table 3; 100 mg/l in Columbia agar, 24 h 37° C., UV 360-365 nm
Method: as §1, §2, §3

[18] = test system: Pseudomonas aeruginosa NCTC 10662; test: as above; type: cell-based; parameters: key: − = no fluorescence detected; +/− = weak fluorescence; + = medium fluorescence; ++ = strong fluorescence; settings: Table 3; 100 mg/l in Columbia agar, 24 h 37° C., UV 360-365 nm
Method: as §1, §2, §3

[19] = test system: Salmonella typhimurium NCTC 74; test: as above; type: cell-based; parameters: key to Intensity of fluorescence, Salmonella typhimurium NCTC 74 / F: fluorescence (intensity), Salmonella typhimurium NCTC 74 / Intensity of the fluorescence, Salmonella typhimurium NCTC 74: − = no fluorescence detected; +/− = weak fluorescence; + = medium fluorescence; ++ = strong fluorescence; settings: Table 3; 100 mg/l in Columbia agar, 24 h 37° C., UV 360-365 nm
Method: as §1, §2, §3

Structure (SMILES) | F: fluorescence (intensity), Morganella morganii 462403 (wild) [1] | F: fluorescence (intensity), MRSA NCTC 11939 (MRSA NCTC 11939) | F: fluorescence (intensity), Candida glabrata NCPF 3943 [2] | F: fluorescence (intensity), Enterobacter cloacae NCTC 11936 [3] | F: fluorescence (intensity), Staphylococcus aureus NCTC 6571 [4] | F: fluorescence (intensity), Candida albicans ATCC 90028 [5] | F: fluorescence (intensity), Yersinia enterocolitica NCTC 11176 [6] | F: fluorescence (intensity), Burkholderia cepacia 1222 [7] | F: fluorescence (intensity), Escherichia coli NCTC 10418 [8] | F: fluorescence (intensity), Staphylococcus epidermidis NCTC 11047 [9] | F: fluorescence (intensity), Providencia rettgeri NCTC 7475 [10] | F: fluorescence (intensity), Serratia marcescens NCTC 10211 [11] | F: fluorescence (intensity), Citrobacter freundii 46262 (wild) [12] | F: fluorescence (intensity), Enterococcus faecails NCTC 775 [13] | F: fluorescence (intensity), Enterococcus faecium NCTC 7171 [14] | F: fluorescence (intensity), Bacillus subtilis NCTC 9372 [15] | F: fluorescence (intensity), Listeria monocyto genes NCTC 11994 [16] | F: fluorescence (intensity), Streptococcus pyogenes NCTC 8306 [17] | F: fluorescence (intensity), Pseudomonas aeruginosa NCTC 10662 [18] | F: fluorescence (intensity), Salmonella typhimurium NCTC 74 [19] | also measured
O=[N+]([O-])c1ccccc1-c1nc2ccccc2o1 [Substrate 1] | ++ | ++ | − | ++ | ++ | − | ++ | ++ | ++ | + | ++ | ++ | ++ | ++ | + | − | ++ | + | ++ | ++ | G: growth, Candida glabrata NCPF 3943 [2]: No G
O=[N+]([O-])c1ccc(Cl)cc1-c1nc2ccccc2o1 [Substrate 4, 2-(2′-Nitro-5′-chlorophenyl)benzoxazole] |  |  |  |  |  |  |  |  |  |  |  |  |  |  |  |  |  |  |  |  | melting point: 130 to 132 °C
O=[N+]([O-])c1cc2c(cc1-c1nc3ccccc3o1)OCO2 [Substrate 5] | ++ | ++ | − | ++ | ++ | − | − | + | ++ | − | + | ++ | ++ | − | − | − | + | − | + | ++ | 
